From patent US11707503B2, “Modulators of complement activity” (Ra Pharmaceuticals, Inc., priority 2015, dated 2023) come the findings set out here.

Entries after “also recorded” stand apart in the source; their conditions may differ. Starred links: 1 amine or outer side, 2 acyl side, 3 side chain; linkers in the order of their positions; H or OH if unused. Positions of bridges follow the written chain, without caps; N, C: chain ends. Non-standard residues stand in square brackets, D forms with d. Residues, ends and D or L forms follow the SMILES beside them. Trp(7-aza) = N[C@@H](Cc1c[nH]c2ncccc12)C(=O)O; Tiq1c(1S) = O=C(O)[C@H]1NCCc2ccccc21; mXylylene = c1cc(C[*:1])cc(C[*:2])c1; pXylylene = c1cc(C[*:2])ccc1C[*:1]; Phg = N[C@H](C(=O)O)c1ccccc1; Tle = CC(C)(C)[C@H](N)C(=O)O; NMeS = CN[C@@H](CO)C(=O)O; hCys = N[C@@H](CCS)C(=O)O; Nva = CCC[C@H](N)C(=O)O

The first assay deals with T1, C5 (Homo sapiens, UniProt P01031). The experiment in a line: Competitive fluorescence polarization (FP) binding assay with probe R3076. Details: purchased Complement Technology, Tyler, Tex.
T1 sequence (P01031 678-1676 limits assumed): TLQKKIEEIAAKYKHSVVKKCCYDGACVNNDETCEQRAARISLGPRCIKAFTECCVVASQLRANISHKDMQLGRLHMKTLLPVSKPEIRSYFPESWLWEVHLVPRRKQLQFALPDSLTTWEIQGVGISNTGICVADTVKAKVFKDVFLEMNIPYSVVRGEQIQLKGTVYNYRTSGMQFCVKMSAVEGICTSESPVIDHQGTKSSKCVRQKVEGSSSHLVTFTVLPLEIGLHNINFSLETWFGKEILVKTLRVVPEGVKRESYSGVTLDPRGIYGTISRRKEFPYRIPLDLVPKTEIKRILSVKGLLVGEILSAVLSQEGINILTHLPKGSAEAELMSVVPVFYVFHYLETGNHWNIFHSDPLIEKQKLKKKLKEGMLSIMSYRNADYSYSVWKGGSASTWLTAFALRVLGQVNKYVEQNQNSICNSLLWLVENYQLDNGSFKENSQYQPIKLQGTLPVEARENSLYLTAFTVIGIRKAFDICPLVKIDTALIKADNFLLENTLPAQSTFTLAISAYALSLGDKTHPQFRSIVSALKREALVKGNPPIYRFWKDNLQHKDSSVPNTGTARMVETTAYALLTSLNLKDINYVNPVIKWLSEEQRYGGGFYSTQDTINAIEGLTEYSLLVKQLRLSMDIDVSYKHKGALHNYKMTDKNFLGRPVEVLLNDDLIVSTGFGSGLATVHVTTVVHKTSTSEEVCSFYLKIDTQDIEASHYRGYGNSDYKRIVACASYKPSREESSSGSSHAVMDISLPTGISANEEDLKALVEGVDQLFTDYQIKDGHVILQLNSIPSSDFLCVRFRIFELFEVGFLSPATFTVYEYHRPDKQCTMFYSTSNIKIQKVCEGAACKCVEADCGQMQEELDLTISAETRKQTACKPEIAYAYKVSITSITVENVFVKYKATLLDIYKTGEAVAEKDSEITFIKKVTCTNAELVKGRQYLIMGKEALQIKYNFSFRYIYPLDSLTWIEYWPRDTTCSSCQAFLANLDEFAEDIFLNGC
T1 sequence (P01031 19-673 limits assumed): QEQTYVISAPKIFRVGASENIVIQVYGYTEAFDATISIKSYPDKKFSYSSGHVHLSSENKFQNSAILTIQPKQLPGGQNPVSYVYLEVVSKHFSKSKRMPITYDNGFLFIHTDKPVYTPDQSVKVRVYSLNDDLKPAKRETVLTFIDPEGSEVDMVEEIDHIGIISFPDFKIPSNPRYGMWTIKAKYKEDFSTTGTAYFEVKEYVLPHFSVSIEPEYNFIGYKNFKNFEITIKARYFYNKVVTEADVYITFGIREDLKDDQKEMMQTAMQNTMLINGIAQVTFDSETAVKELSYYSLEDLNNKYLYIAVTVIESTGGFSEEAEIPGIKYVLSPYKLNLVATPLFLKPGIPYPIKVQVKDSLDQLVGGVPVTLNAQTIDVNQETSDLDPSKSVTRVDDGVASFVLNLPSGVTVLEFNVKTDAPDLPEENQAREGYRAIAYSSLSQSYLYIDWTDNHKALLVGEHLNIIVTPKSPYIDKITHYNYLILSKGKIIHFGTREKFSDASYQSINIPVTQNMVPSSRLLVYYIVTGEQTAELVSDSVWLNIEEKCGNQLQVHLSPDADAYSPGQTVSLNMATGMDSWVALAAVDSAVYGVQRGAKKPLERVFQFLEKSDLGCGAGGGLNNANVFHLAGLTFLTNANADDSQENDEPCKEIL
Details: not given
As to the method: FP was used for screening competitive polypeptide inhibitors of the C5 protein. […] The BODIPY-TMR dye attached to the C-terminal lysine of the protein and the subsequent labeled probe was purified by HPLC.
Human C5 protein was diluted to 200 nM in assay buffer, composed of TBS (EMD Millipore, Billerica, Mass.)+0.005% Triton-X (Sigma, Saint Louis, Mo.). 10 μl of assay buffer was added to all wells of a black, non-binding, 384-well assay plate (Greiner, Monroe, N.C.) and 10 μl of diluted C5 protein stock was added to experimental and designated control wells.
Probe R3076 (SEQ ID NO: 40) was diluted 1 to 10 in DMSO (Life Technologies, Grand Island, N.Y.) and 30 μl of that stock was diluted in 3 ml of assay buffer to yield a 100 nM stock. 10 μl of this working stock was then added to each well in the assay plate. The assay plate was incubated at room temperature, protected from light, for 20 minutes to allow binding to reach equilibrium.
Test articles listed in Table 7 were subsequently diluted in DMSO then assay buffer, comprising 10 2-fold dilutions and were then added to the assay plate in triplicate, rapidly. The assay plate was then incubated in the Paradigm (Molecular Devices, Sunnyvale, Calif.) plate reader for 60 minutes at 25° C.
After incubation for 60 minutes, the plate was read using the Paradigm FP protocol (Molecular Devices, Sunnyvale, Calif.) and raw polarization values were imported into Graphpad Prism.
On to `CCC[C@H](NC(C)=O)C(=O)N[C@@H](CS)C(=O)N[C@@H](Cc1ccc(O)cc1)C(=O)N[C@@H](CCC(=O)O)C(=O)N[C@@H](CC(N)=O)C(=O)N[C@H](C(=O)N[C@@H](Cc1ccc(O)cc1)C(=O)N[C@@H](Cc1c[nH]c2ncccc12)C(=O)N[C@@H](CCC(=O)O)C(=O)N[C@@H](Cc1ccc(O)cc1)C(=O)N1CCC[C@H]1C(=O)N[C@H](C(=O)N1CCC[C@H]1C(N)=O)c1ccccc1)C(C)(C)C` [Compound R3003, Ac-Nvl-C-Y-E-N-Tbg-Y-azaTrp-E-Y-P-Phg-P-NH2] (Ac-[Nva]CYEN[Tle]Y[Trp(7-aza)]EYP[Phg]P-NH2), for which the “competition for / affinity for C5 in words” value (from here on “competition for / affinity”) is “most potent”.

On to `CCC[C@H](NC(C)=O)C(=O)N[C@H]1CSCc2cccc(c2)CSC[C@@H](C(=O)N[C@@H](CCC)C(=O)N2CCC[C@H]2C(N)=O)NC(=O)[C@H](Cc2c[nH]cn2)NC(=O)[C@H](CO)N(C)C(=O)[C@H](Cc2ccc(O)cc2)NC(=O)[C@H](CCC(=O)O)NC(=O)[C@H](Cc2c[nH]c3ncccc23)NC(=O)[C@H]([C@@H](C)O)NC(=O)[C@H](c2ccccc2)NC1=O` [Compound R3011, [mXylyl(2,10)]Ac-Nvl-C-Phg-T-azaTrp-E-Y-(N—Me)S-H-C-Nvl-P-NH2] (Ac-[Nva]C[Phg]T[Trp(7-aza)]EY[NMeS]HC[Nva]P-NH2; linker 2-10 via mXylylene), for which the “competition for / affinity” value is reported as “relatively strong affinity”.

Consider `CCC[C@H](NC(=O)[C@@H]1CCCN1C(=O)[C@H](CCC)NC(=O)[C@@H]1CSCc2cccc(c2)CSC[C@H](NC(C)=O)C(=O)N[C@@H](c2ccccc2)C(=O)N[C@@H]([C@@H](C)O)C(=O)N[C@@H](Cc2c[nH]c3ncccc23)C(=O)N[C@@H](CCC(=O)O)C(=O)N[C@@H](Cc2ccc(O)cc2)C(=O)N(C)[C@@H](CO)C(=O)N[C@@H](Cc2c[nH]cn2)C(=O)N1)C(N)=O` [Compound R3014, [mXylyl(1,9)]Ac-C-Phg-T-azaTrp-E-Y-(N—Me)S-H-C-Nvl-P-Nvl-NH2] (Ac-C[Phg]T[Trp(7-aza)]EY[NMeS]HC[Nva]P[Nva]-NH2; linker 1-9 via mXylylene), for which the “competition for / affinity” value was “weak affinity”.

For `CCC[C@H](NC(=O)[C@H](Cc1ccc(O)cc1)NC(=O)[C@H](CC(N)=O)NC(=O)[C@H](CCC)NC(=O)[C@H](CCC(=O)O)NC(=O)[C@@H](NC(=O)[C@H](Cc1c[nH]c2ncccc12)NC(=O)[C@@H](NC(=O)[C@H](CS)NC(=O)[C@H](Cc1ccc(O)cc1)NC(=O)[C@@H]1CCCN1C(=O)[C@H](Cc1ccc(O)cc1)NC(C)=O)c1ccccc1)C(C)(C)C)C(=O)N[C@@H](CCC(=O)O)C(N)=O` [Compound R3023, Ac-Y-P-Y-C-Phg-azaTrp-Tbg-E-Nvl-N-Y-Nvl-E-NH2] (Ac-YPYC[Phg][Trp(7-aza)][Tle]E[Nva]NY[Nva]E-NH2), the “competition for / affinity” value was “no activity at the highest concentration tested; also recorded: not detected at the highest concentration tested; also recorded: no affinity”.

Consider `CSCC[C@H](N)C(=O)N[C@H]1CSCc2cccc(c2)CSC[C@@H](C(=O)N[C@@H](CC(=O)O)C(=O)N[C@H](C(=O)N[C@@H](Cc2ccc(O)cc2)C(=O)N[C@@H](Cc2c[nH]c3ccccc23)C(=O)N[C@@H](CCC(=O)O)C(N)=O)C(C)C)NC(=O)[C@H](Cc2ccccc2)NC(=O)[C@H](CCCNC(=N)N)NC(=O)[C@H](CCC(=O)O)NC(=O)[C@H](C(C)C)NC1=O` [Compound R3043, [mXylyl(2,7)]M-C-V-E-R-F-C-D-V-Y-W-E-NH2] (H-MCVERFCDVYWE-NH2; linker 2-7 via mXylylene), for which the “competition for / affinity” value is listed as “weak affinity”.

In another assay the target is T1, C5. The experiment in a line: Human hemolysis assay (RBC lysis assay using complete human sera). It is filed as cell-based. Details: with complete human sera (Complement Technology, Tyler Tex.) and polypeptides; tissue Complement Technology, Tyler Tex; host or cells: complete human serum. Particulars: antibody-sensitized sheep erythrocytes, complete human sera. As to the method: Polypeptides listed in Table 3, as well as their optimized derivatives (see Table 4) were assessed for inhibitor activity using a red blood cell hemolysis assay. […] Human sera was rapidly thawed at 37° C. and then stored on ice until diluted into GVB++. Ten 6-fold serial dilutions of polypeptides (10 mM stock, DMSO) were performed in DMSO and then added to buffer. 50 μl of each polypeptide dilution was combined with sera and 100 μl of cells in individual wells of a 96-well tissue culture-treated clear microtitre plate (USA Scientific, Ocala, Fla.) and resuspended by pipetting. Samples were incubated at 37° C. for one hour. […] Data was fit with a log-logit formula producing a dose-response curve and IC50. As used herein, the term “IC50” refers to the half maximal inhibitory concentration, a value used to indicate the amount of the inhibitor needed to reduce a given reaction or process by half.
The human constant light chain kappa and IgG2 constant heavy chain sequences were used for the constants regions of the antibody. This antibody was expressed from human embryonic kidney cells (HEK293) and purified by Protein A affinity chromatography. […] Human sera was rapidly thawed at 37° C. and then stored on ice until diluted into GVB++. Ten 6-fold serial dilutions of each compound (10 mM stock, DMSO) were performed in DMSO and then added to buffer. 50 μl of each compound dilution was combined with sera and 100 μl of cells in individual wells of a 96-well tissue culture-treated clear microtitre plate (USA Scientific, Ocala, Fla.) and resuspended by pipetting. Samples were incubated at 37° C. for one hour. […] Data was fit with a log-logit formula producing a dose-response curve and IC50 (see FIG. 11A).
Turning to `CC(=O)N[C@H]1CSCc2cccc(c2)CSC[C@@H](C(N)=O)NC(=O)[C@H](Cc2c[nH]cn2)NC(=O)[C@H](CO)N(C)C(=O)[C@H](Cc2ccc(O)cc2)NC(=O)[C@H](CCC(=O)O)NC(=O)[C@H](Cc2c[nH]c3ncccc23)NC(=O)[C@H]([C@@H](C)O)NC(=O)[C@H](c2ccccc2)NC1=O` [Compound R3015, [mXylyl(1,9)]Ac-C-Phg-T-azaTrp-E-Y-(N—Me)S-H-C-NH2] (Ac-C[Phg]T[Trp(7-aza)]EY[NMeS]HC-NH2; linker 1-9 via mXylylene), the half-maximal inhibitory concentration (IC50) was more than 3.96 µM.

Turning to `CCC[C@H](NC(=O)[C@@H]1CCSCc2ccc(cc2)CSCC[C@H](NC(=O)[C@H](CCC)NC(C)=O)C(=O)N[C@@H](c2ccccc2)C(=O)N[C@@H]([C@@H](C)O)C(=O)N[C@@H](Cc2c[nH]c3ncccc23)C(=O)N[C@@H](CCC(=O)O)C(=O)N[C@@H](Cc2ccc(O)cc2)C(=O)N(C)[C@@H](CO)C(=O)N[C@@H](Cc2c[nH]cn2)C(=O)N1)C(N)=O` [Compound R3108, [pXylyl(2,10)]Ac-Nvl-homoC-Phg-T-azaTrp-E-Y-(N—Me)S-H-homoC-Nvl-NH2] (Ac-[Nva][hCys][Phg]T[Trp(7-aza)]EY[NMeS]H[hCys][Nva]-NH2; linker 2-10 via pXylylene), the IC50 is more than 75 µM.

Consider `CCC[C@H](NC(=O)[C@@H]1CSCc2cccc(c2)CSC[C@H](NC(=O)[C@H](CCC)NC(C)=O)C(=O)N2CCc3ccccc3[C@H]2C(=O)N[C@@H]([C@@H](C)O)C(=O)N[C@@H](Cc2c[nH]c3ncccc23)C(=O)N[C@@H](CCC(=O)O)C(=O)N[C@@H](Cc2ccc(O)cc2)C(=O)N(C)[C@@H](CO)C(=O)N[C@@H](Cc2c[nH]cn2)C(=O)N1)C(N)=O` [Compound R3122, [mXylyl(2,10)]Ac-Nvl-C-Tiq-T-azaTrp-E-Y-(N—Me)S-H-C-Nvl-NH2] (Ac-[Nva]C[Tiq1c(1S)]T[Trp(7-aza)]EY[NMeS]HC[Nva]-NH2; linker 2-10 via mXylylene), for which the 50% inhibitory concentration (IC50) is more than 50 µM.

As for `CCC[C@H](NC(=O)[C@@H](NC(=O)[C@@H]1CCCN1C(=O)[C@H](Cc1ccc(O)cc1)NC(=O)[C@H](CCC(=O)O)NC(=O)[C@H](Cc1c[nH]c2ncccc12)NC(=O)[C@H](Cc1ccc(O)cc1)NC(=O)[C@@H](NC(=O)[C@H](CC(=O)O)NC(=O)[C@@H]1CSCc2cccc(c2)CSC[C@H](NC(C)=O)C(=O)N[C@@H](C(C)C)C(=O)N[C@@H](C)C(=O)N[C@@H](CCCNC(=N)N)C(=O)N[C@@H](Cc2ccccc2)C(=O)N1)C(C)(C)C)c1ccccc1)C(N)=O` [Compound R3150, [mXylyl(1,6)]Ac-C-V-A-R-F-C-D-Tbg-Y-azaTrp-E-Y-P-Phg-Nvl-NH2] (Ac-CVARFCD[Tle]Y[Trp(7-aza)]EYP[Phg][Nva]-NH2; linker 1-6 via mXylylene), the IC50 was determined as 0.032 µM.

Staying with this assay, now noted: relative to parent polypeptide.
In the case of `CC(=O)N[C@H]1CSCc2cccc(c2)CSC[C@@H](C(=O)N[C@@H](CC(=O)O)C(=O)N[C@H](C(=O)N[C@@H](Cc2ccc(O)cc2)C(=O)N[C@@H](Cc2c[nH]c3ccccc23)C(=O)N[C@@H](CCC(=O)O)C(=O)N[C@@H](Cc2ccccc2)C(N)=O)C(C)C)NC(=O)[C@H](Cc2ccccc2)NC(=O)[C@H](CCCNC(=N)N)NC(=O)[C@H](CCC(=O)O)NC(=O)[C@H](C(C)C)NC1=O` [Compound R3048, [mXylyl(1,6)]Ac-C-V-E-R-F-C-D-V-Y-W-E-F-NH2] (Ac-CVERFCDVYWEF-NH2; linker 1-6 via mXylylene), the “change in ability to inhibit red blood cell lysis in words” value was “increased the ability”.

Consider `CC(=O)N[C@H]1CSCc2cccc(c2)CSC[C@@H](C(=O)N[C@H](C(=O)N[C@@H](Cc2ccc(O)cc2)C(=O)N[C@@H](Cc2c[nH]c3ccccc23)C(=O)N[C@@H](CCC(=O)O)C(=O)N[C@@H](Cc2ccccc2)C(N)=O)C(C)C)NC(=O)[C@H](Cc2ccccc2)NC(=O)[C@H](CCCNC(=N)N)NC(=O)[C@H](CCC(=O)O)NC(=O)[C@H](C(C)C)NC1=O` [Compound R3124, [mXylyl(1,6)]Ac-C-V-E-R-F-C-V-Y-W-E-F-NH2] (Ac-CVERFCVYWEF-NH2; linker 1-6 via mXylylene), for which the “change in ability to inhibit red blood cell lysis in words” value is on record as “decrease in the ability”.

Consider `CC(=O)N[C@H]1CSCc2cccc(c2)CSC[C@@H](C(=O)N[C@@H](Cc2c[nH]c3ccccc23)C(=O)N[C@@H](CCC(=O)O)C(=O)N[C@@H](Cc2ccccc2)C(N)=O)NC(=O)[C@H](Cc2ccccc2)NC(=O)[C@H](CCCNC(=N)N)NC(=O)[C@H](CCC(=O)O)NC(=O)[C@H](C(C)C)NC1=O` [Compound R3125, [mXylyl(1,6)]Ac-C-V-E-R-F-C-W-E-F-NH2] (Ac-CVERFCWEF-NH2; linker 1-6 via mXylylene), for which the “change in ability to inhibit red blood cell lysis in words” value is recorded as “decrease in the ability”.
